# Experimental data from PMC11800161 (ACS Omega, 2025).
# How the values were obtained:
# S. faecalis (MTCC- 0459) = experiment: Broth microdilution MIC/MBC, S. faecalis; format: cell-based, Streptococcus faecalis; settings: for MIC: Enterococcus faecalis, MTCC0459; for antibacterial potency relative to penicillin G (times greater): by MIC, organism not named in the sentence (values match S. faecalis)
# [1] = tested on: Bacillus pumilis (MTCC- 2296); experiment: Broth microdilution MIC/MBC, B. pumilis; format: cell-based; settings: for potency relative to penicillin G (times greater): B. pumilis, by MIC; for MIC: Bacillus, MTCC2296
# [2] = tested on: Enterobacter cloacae (ATCC- 23355); format: cell-based; settings: E. cloacae
# [3] = tested on: Candida albicans (ATCC-10231); experiment: Broth microdilution MIC/MFC, C. albicans; format: cell-based; settings: ATCC10231
# [4] = tested on: Saccharomyces cerevisiae (ATCC-9763); experiment: Broth microdilution MIC/MFC, S. cerevisiae; format: cell-based; settings: ATCC9763
# E. coli MurA = E. coli MurA (Escherichia coli, UniProt P0A749); experiment: MurA enzyme inhibition assay; format: biochemical
# Chain of E. coli MurA (P0A749 whole entry): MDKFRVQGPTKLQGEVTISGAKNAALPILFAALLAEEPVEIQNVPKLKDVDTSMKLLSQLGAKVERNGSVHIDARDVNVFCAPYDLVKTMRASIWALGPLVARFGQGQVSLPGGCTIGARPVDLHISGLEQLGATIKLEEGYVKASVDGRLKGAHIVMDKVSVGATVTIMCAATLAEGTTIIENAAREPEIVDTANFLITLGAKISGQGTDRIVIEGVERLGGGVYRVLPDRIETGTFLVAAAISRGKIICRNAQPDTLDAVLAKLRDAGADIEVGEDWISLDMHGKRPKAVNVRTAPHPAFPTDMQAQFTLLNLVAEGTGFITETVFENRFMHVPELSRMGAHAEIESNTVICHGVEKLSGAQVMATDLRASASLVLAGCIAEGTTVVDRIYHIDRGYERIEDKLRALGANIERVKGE
# E. coli (ATCC- 25955) = experiment: microbe, parasite or virus in culture; format: cell-based; settings: Escherichia coli, ATCC25955
# [5] = tested on: hemolytic activity of E. coli; experiment: Hemolysin inhibition assay, E. coli; format: cell-based; settings: at 75%MBC, control 100% hemolysis
# [6] = tested on: hemolytic activity of S. faecalis; experiment: Hemolysin inhibition assay, S. faecalis; format: cell-based; settings: at 75%MBC, control 100% hemolysis
SMILES,MIC (S. faecalis (MTCC- 0459)),potency relative to penicillin G (times greater) [1],MIC [1],other results
"Cc1ccc(-c2cc(-c3ccc(OCc4ccccc4)cc3)nc3c(N=Nc4ccc(F)cc4)c(N)nn23)cc1 [Compound 4a, 5-(4-(Benzyloxy)phenyl)-3-((4-fluorophenyl)diazenyl)-7-(p-tolyl)pyrazolo[1,5-a]pyrimidin-2-amine]",3.91 µg/mL,,,antibacterial potency relative to penicillin G (times greater) (S. faecalis (MTCC- 0459)): 8 times
"Nc1nn2c(-c3ccco3)cc(-c3ccc(OCc4ccccc4)cc3)nc2c1N=Nc1ccc(F)cc1 [Compound 4g, 5-(4-(Benzyloxy)phenyl)-3-((4-fluorophenyl)diazenyl)-7-(furan-2-yl)pyrazolo[1,5-a]pyrimidin-2-amine]",1.95 µg/mL,16 fold,3.91 µg/mL,antibacterial potency relative to penicillin G (times greater) (S. faecalis (MTCC- 0459)): 16 times
"COc1ccc(N=Nc2c(N)nn3c(-c4ccco4)cc(-c4ccc(OCc5ccccc5)cc4)nc23)cc1 [Compound 4i, 5-(4-(Benzyloxy)phenyl)-7-(furan-2-yl)-3-((4-methoxyphenyl)diazenyl)pyrazolo[1,5-a]pyrimidin-2-amine]",,4 fold,15.6 µg/mL,MBC/MIC [2]: 8; MIC [3]: 15.6 µg/mL
"Cc1ccc(N=Nc2c(N)nn3c(-c4ccco4)cc(-c4ccc(OCc5ccccc5)cc4)nc23)cc1 [Compound 4h, 5-(4-(Benzyloxy)phenyl)-7-(furan-2-yl)-3-(p-tolyldiazenyl)pyrazolo[1,5-a]pyrimidin-2-amine]",15.6 µg/mL,16 fold,3.91 µg/mL,MIC [4]: 15.6 µg/mL
"C[C@@H]1O[C@@H]1P(=O)(O)O [fosfomycin, Fosfomycin]",,,,IC50 (E. coli MurA): 69.8 µM
"Nc1nn2c(-c3ccc(Cl)cc3Cl)cc(-c3ccc(OCc4ccccc4)cc3)nc2c1N=Nc1ccc(F)cc1 [Compound 4d, 5-(4-(Benzyloxy)phenyl)-7-(2,4-dichlorophenyl)-3-((4-fluorophenyl)diazenyl)pyrazolo[1,5-a]pyrimidin-2-amine]",,,,MIC [4]: 15.6 µg/mL
"COc1ccc(N=Nc2c(N)nn3c(-c4ccc(Cl)cc4Cl)cc(-c4ccc(OCc5ccccc5)cc4)nc23)cc1 [Compound 4f, 5-(4-(Benzyloxy)phenyl)-7-(2,4-dichlorophenyl)-3-((4-methoxyphenyl)diazenyl)pyrazolo[1,5-a]pyrimidin-2-amine]",15.6 µg/mL,8 fold,7.81 µg/mL,
"Cc1ccc(N=Nc2c(N)nn3c(-c4ccc(Cl)cc4Cl)cc(-c4ccc(OCc5ccccc5)cc4)nc23)cc1 [Compound 4e, 5-(4-(Benzyloxy)phenyl)-7-(2,4-dichlorophenyl)-3-(p-tolyldiazenyl)pyrazolo[1,5-a]pyrimidin-2-amine]",7.81 µg/mL,,,antibacterial potency relative to penicillin G (times greater) (S. faecalis (MTCC- 0459)): 4 times
"CC1(C)S[C@@H]2[C@H](NC(=O)Cc3ccccc3)C(=O)N2[C@H]1C(=O)O [Penicillin G, penicillin G, reference compound]",31.5 µg/mL,,62.5 µg/mL,
"COc1ccc(N=Nc2c(N)nn3c(-c4ccc(C)cc4)cc(-c4ccc(OCc5ccccc5)cc4)nc23)cc1 [Compound 4c, 5-(4-(Benzyloxy)phenyl)-3-((4-methoxyphenyl)diazenyl)-7-(p-tolyl)pyrazolo[1,5-a]pyrimidin-2-amine]",15.6 µg/mL,8 fold,7.81 µg/mL,MIC (E. coli (ATCC- 25955)): 1.95 µg/mL; hemolysis [5]: 7.1%; hemolysis [6]: 3.3%
"Cc1ccc(N=Nc2c(N)nn3c(-c4ccc(C)cc4)cc(-c4ccc(OCc5ccccc5)cc4)nc23)cc1 [Compound 4b, 5-(4-(Benzyloxy)phenyl)-7-(p-tolyl)-3-(p-tolyldiazenyl)pyrazolo[1,5-a]pyrimidin-2-amine]",15.6 µg/mL,4 fold,15.6 µg/mL,MIC (E. coli (ATCC- 25955)): 1.95 µg/mL
